In the test the target is T1, human RXFP1 (Homo sapiens, UniProt Q9HBX9).
T1 construct: expressed in transfected cells
T1 sequence (Q9HBX9 1-757): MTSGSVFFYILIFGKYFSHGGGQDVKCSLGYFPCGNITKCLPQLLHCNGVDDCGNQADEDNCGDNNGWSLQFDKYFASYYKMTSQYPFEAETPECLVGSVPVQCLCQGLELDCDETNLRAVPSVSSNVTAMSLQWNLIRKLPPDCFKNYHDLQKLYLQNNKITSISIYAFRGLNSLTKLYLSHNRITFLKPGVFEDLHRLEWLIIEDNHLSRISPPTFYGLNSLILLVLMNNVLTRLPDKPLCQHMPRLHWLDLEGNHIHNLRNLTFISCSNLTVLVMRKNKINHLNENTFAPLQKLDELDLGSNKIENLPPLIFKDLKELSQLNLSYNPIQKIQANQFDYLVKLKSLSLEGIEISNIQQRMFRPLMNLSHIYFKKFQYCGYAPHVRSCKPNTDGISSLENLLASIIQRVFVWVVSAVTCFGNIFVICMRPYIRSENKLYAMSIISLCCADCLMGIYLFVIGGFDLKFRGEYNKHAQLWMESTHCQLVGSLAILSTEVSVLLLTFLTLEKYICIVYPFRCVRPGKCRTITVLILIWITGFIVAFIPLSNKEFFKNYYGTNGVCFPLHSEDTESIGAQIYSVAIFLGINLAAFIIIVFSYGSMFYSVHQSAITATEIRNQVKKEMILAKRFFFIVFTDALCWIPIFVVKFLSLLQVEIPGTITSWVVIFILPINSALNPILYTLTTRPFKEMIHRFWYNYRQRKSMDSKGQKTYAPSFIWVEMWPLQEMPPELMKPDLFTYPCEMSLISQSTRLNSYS
The experiment in a line: hRXFP1 HEK293 cAMP assay (HTRF). The class given is cell-based. The note with it: HEK293 cells stably expressing human RXFP1; 30 min at rt; intracellular cAMP by HTRF. An outline of the steps: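 HEK293 cells stably expressing human RXFP1 treated 30 min at rt with compound (0.010 nM to 50 μM, 2% DMSO) in HBSS/HEPES buffer with 0.5 mM IBMX. Intracellular cAMP measured by HTRF (665/590 nm ratio) against a cAMP standard curve; potency fitted by 4-parameter logistic.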
(In general: cAMP levels reflect the balance of adenylyl cyclase and phosphodiesterase activity.)

Molecules are shown by their SMILES.

As usually defined, the EC50 is the concentration at which the effect is half-maximal. A lower EC50 goes with greater potency. The compound `COc1ccc(-c2cc([C@H](OC(=O)NC3CCC3)C(F)(F)F)ccc2F)cc1C(=O)Nc1c(C(=O)Nc2ccc(F)c(C(F)(F)F)c2)sc2cc(C(F)(F)F)ccc12` [Example 22, (S)-2,2,2-trifluoro-1-(6-fluoro-3′-((2-((4-fluoro-3-(trifluoromethyl)phenyl)carbamoyl)-6-(trifluoromethyl)benzo[b]thiophen-3-yl)carbamoyl)-4′-methoxy-[1, 1′-biphenyl]-3-yl) ethyl cyclobutylcarbamate] had a concentration for a half-maximal effect (EC50) of 0.5 nM.

Turning to `COc1ccc(C2=NOC3CC(NC(=O)C(C)(C)O)CC23)cc1C(=O)Nc1c(C(=O)Nc2ccc(F)c(C(F)(F)F)c2)sc2cc(C(F)(F)F)ccc12` (single isomer, unassigned) [Example 267, N-[4-fluoro-3-(trifluoromethyl)phenyl]-3-{5-[5-(2-hydroxy-2-methyl-propanamido)-3aH,4H,5H,6H, 6aH-cyclopenta[d] [1,2]oxazol-3-yl]-2-methoxy-benzamido}-6-(trifluoromethyl)-1-benzothiophene-2-carboxamide], the EC50 is 3130 nM.

In the case of `COc1ccc(C2CCN(C(=O)CC#N)C2)cc1C(=O)Nc1c(C(=O)Nc2ccc(F)c(C(F)(F)F)c2)sc2cc(C(F)(F)F)ccc12` (stereo not drawn) [Example 146, 3-(5-(1-(2-cyanoacetyl)pyrrolidin-3-yl)-2-methoxy-benzamido)-N-(4-fluoro-3-(trifluoromethyl)phenyl)-6-(trifluoromethyl) benzo[b] thiophene-2-carboxamide], it took 1100 nM to reach a half-maximal effect (EC50).

For `COc1ccc(C2CC2C(C)(C)O)cc1C(=O)Nc1c(C(=O)Nc2ccc(F)c(C(F)(F)F)c2)sc2cc(C(F)(F)F)ccc12` (single isomer, unassigned) [Example 161, N-[4-fluoro-3-(trifluoromethyl)phenyl]-3-{5-[2-(2-hydroxypropan-2-yl)cyclopropyl]-2-methoxy-benzamido}-6-(trifluoromethyl)-1-benzothiophene-2-carboxamide], the midpoint of the response, the EC50, lay at 4940 nM.

Compound `COc1ccc(C2CCN(C(=O)CO)C2)cc1C(=O)Nc1c(C(=O)Nc2ccc(F)c(C(F)(F)F)c2)sc2cc(C(F)(F)F)ccc12` (stereo not drawn) [Example 152, N-(4-fluoro-3-(trifluoromethyl)phenyl)-3-(5-(1-(2-hydroxyacetyl)pyrrolidin-3-yl)-2-methoxy-benzamido)-6-(trifluoromethyl) benzo[b] thiophene-2-carboxamide] registered an EC50 of 613 nM.

`COc1ccc(C2=NOC(CO)C2)cc1C(=O)Nc1c(C(=O)Nc2ccc(F)c(C(F)(F)F)c2)sc2cc(C(F)(F)F)ccc12` (single isomer, unassigned) [Example 249, N-(4-fluoro-3-(trifluoromethyl)phenyl)-3-(5-(5-(hydroxymethyl)-4,5-dihydroisoxazol-3-yl)-2-methoxy-benzamido)-6-(trifluoromethyl) benzo[b] thiophene-2-carboxamide] yielded a concentration for a half-maximal effect (EC50) of 3700 nM.

For `COc1ccc(C2CC3(CNC3)C2)cc1C(=O)Nc1c(C(=O)Nc2ccc(F)c(C(F)(F)F)c2)sc2cc(C(F)(F)F)ccc12` [Example 207, N-(4-fluoro-3-(trifluoromethyl)phenyl)-3-(2-methoxy-5-(2-azaspiro[3.3]heptan-6-yl)benzamido)-6-(trifluoromethyl) benzo[b] thiophene-2-carboxamide], the concentration for a half-maximal effect (EC50) stood at 1460 nM.

As to `COc1ccc(C2CCCN(CCO)CC2)cc1C(=O)Nc1c(C(=O)Nc2ccc(F)c(C(F)(F)F)c2)sc2cc(C(F)(F)F)ccc12` (single isomer, unassigned) [Example 72, N-(4-fluoro-3-(trifluoromethyl)phenyl)-3-(5-(1-(2-hydroxyethyl)azepan-4-yl)-2-methoxy-benzamido)-6-(trifluoromethyl) benzo[b] thiophene-2-carboxamide], the midpoint of the response, the EC50, lay at 4310 nM.

For `COc1ccc(C2CCCNCC2)cc1C(=O)Nc1c(C(=O)Nc2ccc(F)c(C(F)(F)F)c2)sc2cc(C(F)(F)F)ccc12` (stereo not drawn) [Example 39, 3-(5-(azepan-4-yl)-2-methoxybenzamido)-N-(4-fluoro-3-(trifluoromethyl)phenyl)-6-(trifluoromethyl)benzo[b]thiophene-2-carboxamide], the response was half-maximal at 2800 nM (EC50).

The record behind these values is US20260265233A1, “BENZOTHIOPHENE DERIVATIVES AS RXFP1 AGONISTS” (BRISTOL-MYERS SQUIBB COMPANY, priority 2021, published 2026).
